Test results reported in the NIST ThermoML archive (doi:10.1007/s10765-012-1371-1).

Assay: xn = mol fraction of the nth substance listed
Settings: 101 kPa, Liquid

CC(C)CCl [1-chloro-2-methylpropane] + COC(C)(C)C
viscosity [mPa·s]
Settings | 283.15 K | 288.15 K | 293.15 K | 298.15 K | 303.15 K | 308.15 K | 313.15 K
x1 = 0.0492 | 0.3948 | 0.369 | 0.3527 | 0.3369 | 0.3194 | 0.3035 | 0.2885
x1 = 0.0996 | 0.4002 | 0.3742 | 0.3573 | 0.3412 | 0.3237 | 0.3076 | 0.2926
x1 = 0.1979 | 0.4107 | 0.3844 | 0.3664 | 0.3495 | 0.3322 | 0.316 | 0.3005
x1 = 0.3023 | 0.4224 | 0.3957 | 0.3764 | 0.3587 | 0.3412 | 0.3248 | 0.3091
x1 = 0.4027 | 0.4338 | 0.4065 | 0.3861 | 0.3676 | 0.3502 | 0.3335 | 0.3174
x1 = 0.504 | 0.4458 | 0.4178 | 0.396 | 0.3768 | 0.3594 | 0.3424 | 0.3261
x1 = 0.5971 | 0.4574 | 0.4287 | 0.4057 | 0.3856 | 0.3681 | 0.351 | 0.3341
x1 = 0.7036 | 0.4714 | 0.442 | 0.4173 | 0.3962 | 0.3786 | 0.3611 | 0.3437
x1 = 0.8003 | 0.4848 | 0.4547 | 0.4286 | 0.4063 | 0.3886 | 0.3707 | 0.3527
x1 = 0.9031 | 0.5 | 0.4689 | 0.4413 | 0.4179 | 0.3998 | 0.3813 | 0.3626
x1 = 0.9522 | 0.5078 | 0.4763 | 0.4478 | 0.4238 | 0.4054 | 0.3868 | 0.3676
x1 = 1 | 0.5155 | 0.4833 | 0.454 | 0.4296 | 0.4112 | 0.3921 | 0.3726

CCCCCl [1-chlorobutane] + COC(C)(C)C
viscosity [mPa·s]
Settings | 283.15 K | 288.15 K | 293.15 K | 298.15 K | 303.15 K | 308.15 K | 313.15 K
x1 = 0.0499 | 0.395 | 0.369 | 0.3525 | 0.3367 | 0.3193 | 0.3033 | 0.288
x1 = 0.1002 | 0.4003 | 0.3741 | 0.3571 | 0.3409 | 0.3234 | 0.3074 | 0.2915
x1 = 0.2011 | 0.411 | 0.3844 | 0.3663 | 0.3494 | 0.332 | 0.3159 | 0.2991
x1 = 0.302 | 0.4224 | 0.3952 | 0.3758 | 0.3582 | 0.3408 | 0.3247 | 0.3068
x1 = 0.4007 | 0.4339 | 0.4063 | 0.3855 | 0.367 | 0.3498 | 0.3335 | 0.3146
x1 = 0.5026 | 0.4461 | 0.418 | 0.3959 | 0.3765 | 0.3592 | 0.3428 | 0.3229
x1 = 0.6029 | 0.4581 | 0.4295 | 0.4063 | 0.386 | 0.3686 | 0.3519 | 0.3312
x1 = 0.693 | 0.4686 | 0.4396 | 0.4155 | 0.3945 | 0.377 | 0.3605 | 0.3389
x1 = 0.8064 | 0.481 | 0.4518 | 0.4266 | 0.4048 | 0.3876 | 0.371 | 0.3482
x1 = 0.904 | 0.4912 | 0.4616 | 0.4355 | 0.4134 | 0.3966 | 0.3799 | 0.3563
x1 = 0.9509 | 0.4951 | 0.4658 | 0.4392 | 0.4173 | 0.4007 | 0.3841 | 0.3601
x1 = 1 | 0.4993 | 0.4701 | 0.4433 | 0.4214 | 0.405 | 0.3885 | 0.3642

CCC(C)Cl (stereo not given) [2-chlorobutane] + COC(C)(C)C
viscosity [mPa·s]
Settings | 283.15 K | 288.15 K | 293.15 K | 298.15 K | 303.15 K | 308.15 K | 313.15 K
x1 = 0.0434 | 0.3916 | 0.3664 | 0.3507 | 0.3353 | 0.3177 | 0.3019 | 0.287
x1 = 0.0928 | 0.3949 | 0.3694 | 0.3536 | 0.3383 | 0.3207 | 0.3048 | 0.2897
x1 = 0.1824 | 0.4008 | 0.3752 | 0.3591 | 0.3436 | 0.3261 | 0.3099 | 0.2948
x1 = 0.2774 | 0.4072 | 0.3816 | 0.365 | 0.3495 | 0.3319 | 0.3155 | 0.3002
x1 = 0.3786 | 0.4141 | 0.3883 | 0.3715 | 0.3558 | 0.338 | 0.3215 | 0.306
x1 = 0.4751 | 0.4208 | 0.3951 | 0.3779 | 0.3619 | 0.3441 | 0.3273 | 0.3117
x1 = 0.584 | 0.4287 | 0.4029 | 0.3853 | 0.3691 | 0.351 | 0.334 | 0.3182
x1 = 0.6819 | 0.436 | 0.4101 | 0.3921 | 0.3757 | 0.3575 | 0.3401 | 0.3241
x1 = 0.8032 | 0.4456 | 0.4195 | 0.4009 | 0.3843 | 0.3657 | 0.3481 | 0.3317
x1 = 0.9015 | 0.4536 | 0.4274 | 0.4084 | 0.3915 | 0.3727 | 0.3547 | 0.3379
x1 = 0.9512 | 0.458 | 0.4318 | 0.4125 | 0.3954 | 0.3764 | 0.3581 | 0.3411
x1 = 1 | 0.4631 | 0.4365 | 0.4167 | 0.3993 | 0.38 | 0.3615 | 0.3443

CCCCOCC [butyl ethyl ether] + CC(C)CCl
viscosity [mPa·s]
Settings | 283.15 K | 288.15 K | 293.15 K | 298.15 K | 303.15 K | 308.15 K | 313.15 K
x2 = 0 | 0.4796 | 0.4509 | 0.4242 | 0.399 | 0.3756 | 0.356 | 0.3416
x2 = 0.0493 | 0.4797 | 0.4512 | 0.4246 | 0.3993 | 0.3762 | 0.3569 | 0.3423
x2 = 0.1004 | 0.4799 | 0.4514 | 0.4248 | 0.3998 | 0.3771 | 0.3578 | 0.3432
x2 = 0.2001 | 0.4812 | 0.4526 | 0.4259 | 0.4012 | 0.3793 | 0.3603 | 0.3455
x2 = 0.3012 | 0.4836 | 0.4548 | 0.4279 | 0.4035 | 0.3822 | 0.3634 | 0.3481
x2 = 0.4021 | 0.4866 | 0.4574 | 0.4305 | 0.4063 | 0.3855 | 0.3667 | 0.3511
x2 = 0.5025 | 0.4903 | 0.4609 | 0.4337 | 0.4097 | 0.3893 | 0.3704 | 0.3543
x2 = 0.6007 | 0.4946 | 0.4649 | 0.4374 | 0.4133 | 0.3933 | 0.3745 | 0.3576
x2 = 0.6993 | 0.4994 | 0.4692 | 0.4412 | 0.4171 | 0.3975 | 0.3786 | 0.3612
x2 = 0.7994 | 0.5044 | 0.4736 | 0.4453 | 0.4211 | 0.4021 | 0.3832 | 0.3649
x2 = 0.8993 | 0.5099 | 0.4783 | 0.4496 | 0.4253 | 0.4065 | 0.3875 | 0.3687
x2 = 0.9491 | 0.5126 | 0.4808 | 0.4518 | 0.4274 | 0.4089 | 0.3898 | 0.3706

CCCCOCC [butyl ethyl ether] + CCC(C)Cl
viscosity [mPa·s]
Settings | 283.15 K | 288.15 K | 293.15 K | 298.15 K | 303.15 K | 308.15 K | 313.15 K
x2 = 0 | 0.4796 | 0.4509 | 0.4242 | 0.399 | 0.3756 | 0.356 | 0.3416
x2 = 0.0525 | 0.4785 | 0.4498 | 0.4233 | 0.3983 | 0.3749 | 0.3552 | 0.3404
x2 = 0.0974 | 0.4776 | 0.4489 | 0.4223 | 0.3974 | 0.374 | 0.3541 | 0.3392
x2 = 0.2001 | 0.475 | 0.4462 | 0.4203 | 0.3963 | 0.3732 | 0.3533 | 0.3379
x2 = 0.3027 | 0.4724 | 0.4436 | 0.4183 | 0.395 | 0.3724 | 0.3529 | 0.3372
x2 = 0.4 | 0.4697 | 0.4409 | 0.4165 | 0.394 | 0.3718 | 0.3523 | 0.3364
x2 = 0.5248 | 0.4665 | 0.4384 | 0.4148 | 0.3933 | 0.3716 | 0.3523 | 0.3361
x2 = 0.6016 | 0.4647 | 0.4368 | 0.4139 | 0.393 | 0.3716 | 0.3523 | 0.336
x2 = 0.7006 | 0.463 | 0.4353 | 0.413 | 0.393 | 0.3721 | 0.353 | 0.3363
x2 = 0.7993 | 0.462 | 0.4346 | 0.4132 | 0.3939 | 0.3735 | 0.3545 | 0.3376
x2 = 0.8997 | 0.4619 | 0.4349 | 0.4143 | 0.3959 | 0.3759 | 0.3569 | 0.3396
x2 = 0.9502 | 0.4623 | 0.4356 | 0.4152 | 0.3972 | 0.3775 | 0.3587 | 0.3414
